Counter-ions that a name gives are not always drawn.
Target: T1, HIF-1α (Homo sapiens, UniProt Q16665)
T1 construct: endogenous in cells; host or cells: ARPE-19 (ATCC CRL-2302)
Experiment: Analysis of HIF-1α protein expression (Western blot) in ARPE-19 cells under mixed hypoxic condition
Format: cell-based
Details: mixed hypoxic condition (1% oxygen + CoCl2) for 1 hour, concentration range at which HIF-1α expression is reduced by 50% vs untreated control, read-out: IC50 HIF-1α Hypoxia (1 hour)
Description: ARPE-19 cells (Human retinal pigment epithelial cells, ATCC CRL-2302) were cultured in DMEM/F12 (LM002-08, Welgene) medium containing 10% fetal bovine serum (FBS, 16000-044, Gibco) in an incubator at 37°C with 5% carbon dioxide. When the cells grew sufficiently, they were cultured in experimental culture dishes for protein isolation and medium supernatant acquisition.
Cells were detached from the culture dish using TrypLE™ Express (Gibco). After centrifugation at 1000 rpm for 3 minutes, the supernatant was removed. The cells were counted and seeded into new culture dishes. Normoxic conditions were maintained by culturing the cells in a 37°C incubator with 5% carbon dioxide, and hypoxic conditions were maintained by culturing the cells in a hypoxic incubator with 1% oxygen, 5% carbon dioxide, and 94% nitrogen gas.
In a disease of macular degeneration, hypoxia is a very important condition, and since the expression of downstream genes is regulated by HIF-1α, a transcription factor that is stabilized in hypoxic conditions, the following experiment was conducted to confirm this.
Mixed hypoxic condition was used for HIF-1α stability experiments, in which hypoxia was induced with 1% oxygen and the stability of HIF-1α was enhanced by treatment with cobalt chloride (CoCl2).
The compounds of each Example were diluted to 0.1 nM, 1 nM, 3 nM, 10 nM, 30 nM, 100 nM, 300 nM, 1 µM, and 10 µM in DMEM/F12 medium without fetal bovine serum, pretreated for 16 hours or 2 hours, and cultured for 1 hour or 24 hours in a mixed hypoxic condition. The cell medium was discarded, and protein lysates were obtained by rapidly treating with protein lysis buffer (RIPA Lysis and Extraction buffer, Thermo Fisher Scientific). LDS (4X Bolt ™ LDS Sample buffer) and reducing agent (10X Bolt ™ Sample Reducing Agent) were added together to the protein lysate, and heated at 70°C for 10 minutes. The lysate was separated by electrophoresis on a 4-12% Bis-Tris gel, transferred to a PVDF membrane, and blocked with 3% BSA (Albumin, Bovine, Fraction V, MPbio). The membrane was incubated overnight at 4°C with a mixture of anti-HIF-1α (ab179483, abcam) and anti-b-actin (MA515739, Invitrogen) antibodies at a ratio of 1:4000. The following day, the membrane was treated with a peroxidase-conjugated secondary antibody for 1 hour at room temperature, and the target protein was expressed using an ECL solution (Clarity ™ Western ECL substrate, Bio-rad) and quantified.
Based on the results of the expression level of HIF-1α in cells treated with compounds diluted from 10 µM to 0.1 nM, the concentration range of the compound at which the expression level of HIF-1α was reduced by 50% or less compared to the untreated control group was derived.

T1 sequence (Q16665 whole entry): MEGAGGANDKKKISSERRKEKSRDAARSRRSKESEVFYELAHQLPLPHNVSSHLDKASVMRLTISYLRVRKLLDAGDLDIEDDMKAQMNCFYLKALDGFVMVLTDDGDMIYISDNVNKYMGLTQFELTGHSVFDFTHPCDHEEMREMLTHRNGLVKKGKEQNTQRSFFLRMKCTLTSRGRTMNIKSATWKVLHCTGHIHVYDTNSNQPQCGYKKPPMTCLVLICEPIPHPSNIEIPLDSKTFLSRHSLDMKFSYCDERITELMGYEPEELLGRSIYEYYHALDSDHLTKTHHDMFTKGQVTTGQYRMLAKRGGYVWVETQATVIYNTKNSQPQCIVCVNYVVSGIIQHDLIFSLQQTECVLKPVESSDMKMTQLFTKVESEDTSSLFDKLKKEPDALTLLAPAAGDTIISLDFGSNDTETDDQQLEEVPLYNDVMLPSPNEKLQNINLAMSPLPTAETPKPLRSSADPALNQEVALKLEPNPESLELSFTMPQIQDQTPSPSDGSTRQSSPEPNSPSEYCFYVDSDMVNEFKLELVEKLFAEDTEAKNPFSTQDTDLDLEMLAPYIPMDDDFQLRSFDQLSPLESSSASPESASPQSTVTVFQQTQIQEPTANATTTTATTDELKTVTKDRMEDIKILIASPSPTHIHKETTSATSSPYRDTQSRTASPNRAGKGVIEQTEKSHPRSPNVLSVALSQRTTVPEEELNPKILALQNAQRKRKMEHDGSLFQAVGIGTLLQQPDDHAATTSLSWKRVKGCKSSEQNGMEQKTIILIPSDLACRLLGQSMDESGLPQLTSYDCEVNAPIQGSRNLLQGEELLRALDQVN

Structure (SMILES)	DC50
O=C(NCc1cc(F)cc(Br)c1)c1ncnc2nc(C3CCCC3)[nH]c12 [Example 14, N-(3-bromo-5-fluorobenzyl)-8-cyclopentyl-7H-purine-6-carboxamide]	100 to 1000 nM
CC(C)N1CCC[C@H]1c1nc2ncnc(C(=O)NCc3cc(F)cc(-c4cnn(C)c4)c3)c2[nH]1 [Example 67, (S)-N-(3-fluoro-5-(1-methyl-1H-pyrazol-4-yl)benzyl)-8-(1-isopropylpyrrolidin-2-yl)-7H-purine-6-carboxamide]	1000 to 10000 nM
CN1CCC[C@@H]1c1nc2ncnc(C(=O)NCc3cccc(F)c3)c2[nH]1 [Example 68, (R)-N-(3-fluorobenzyl)-8-(1-methylpyrrolidin-2-yl)-7H-purine-6-carboxamide]	1000 to 10000 nM
CN1CCC(c2nc3ncnc(C(=O)NCc4cc(F)cc(-c5cnn(C)c5)c4)c3[nH]2)CC1 [Example 71, N-(3-fluoro-5-(1-methyl-1H-pyrazol-4-yl)benzyl)-8-(1-methylpiperidin-4-yl)-7H-purine-6-carboxamide]	1000 to 10000 nM
Cn1cc(-c2cc(F)cc(CNC(=O)c3ncnc4nc(CNC(=O)OCc5ccccc5)[nH]c34)c2)cn1 [Example 72, Benzyl ((6-((3-fluoro-5-(1-methyl-1H-pyrazol-4-yl)benzyl)carbamoyl)-7H-purin-8-yl)methyl)carbamate]	1000 to 10000 nM
Cn1cc(-c2cc(F)cc(CNC(=O)c3ncnc4nc(CN)[nH]c34)c2)cn1 [Example 73, 8-(Aminomethyl)-N-(3-fluoro-5-(1-methyl-1H-pyrazol-4-yl)benzyl)-7H-purine-6-carboxamide]	1000 to 10000 nM
Cn1cc(-c2cc(F)cc(CNC(=O)c3ncnc4nc[nH]c34)c2)cn1 [Example 74, N-(3-fluoro-5-(1-methyl-1H-pyrazol-4-yl)benzyl)-7H-purine-6-carboxamide]	1000 to 10000 nM
Cn1cc(-c2cc(F)cc(CNC(=O)c3ncnc4nc(C5CCNC5)[nH]c34)c2)cn1 (stereo not drawn) [Example 76, N-(3-fluoro-5-(1-methyl-1H-pyrazol-4-yl)benzyl)-8-(pyrrolidin-3-yl)-7H-purine-6-carboxamide hydrochloride]	1000 to 10000 nM
CN1CCC(c2nc3ncnc(C(=O)NCc4cc(F)cc(-c5cnn(C)c5)c4)c3[nH]2)C1 (stereo not drawn) [Example 79, N-(3-fluoro-5-(1-methyl-1H-pyrazol-4-yl)benzyl)-8-(1-methylpyrrolidin-3-yl)-7H-purine-6-carboxamide]	1000 to 10000 nM

More lines, now with the values ahead:

DC50	Structure (SMILES)
100 to 1000 nM	Cn1cc(-c2cccc(C3(NC(=O)c4ncnc5nc(C6CCCC6)[nH]c45)CC3)c2)cn1 [Example 6, 8-Cyclopentyl-N-(1-(3-(1-methyl-1H-pyrazol-4-yl)phenyl)cyclopropyl)-7H-purine-6-carboxamide]
100 to 1000 nM	C[Si](C)(C)CCOCn1c(C2CCCC2)nc2ncnc(C(=O)NCc3cc(F)cc(-c4cnn(-c5cccc(C#N)c5)c4)c3)c21 [Example 22, N-(3-(1-(3-cyanophenyl)-1H-pyrazol-4-yl)-5-fluorobenzyl)-8-cyclopentyl-7-((2-(trimethylsilyl)ethoxy)methyl)-7H-purine-6-carboxamide]
100 to 1000 nM	Cn1c(C2CCCC2)nc2ncnc(C(=O)NCc3cc(F)cc(-c4cnn(-c5ccc(F)cc5)c4)c3)c21 [Example 55, 8-Cyclopentyl-N-(3-fluoro-5-(1-(4-fluorophenyl)-1H-pyrazol-4-yl)benzyl)-7-methyl-7H-purine-6-carboxamide]
100 to 1000 nM	O=C(NCc1cc(F)cc(-c2cnn(-c3ccc(F)cc3)c2)c1)c1nc(Cl)nc2nc(C3CCCC3)[nH]c12 [Example 61, 2-Chloro-8-cyclopentyl-N-(3-fluoro-5-(1-(4-fluorophenyl)-1H-pyrazol-4-yl)benzyl)-7H-purine-6-carboxamide]
1000 to 10000 nM	Cn1cc(-c2cc(F)cc(CNC(=O)c3ncnc4nc([C@@H]5CCCN5)[nH]c34)c2)cn1 [Example 62, (S)-N-(3-fluoro-5-(1-methyl-1H-pyrazol-4-yl)benzyl)-8-(pyrrolidin-2-yl)-7H-purine-6-carboxamide hydrochloride]
1000 to 10000 nM	Cn1cc(-c2cc(F)cc(CNC(=O)c3ncnc4nc([C@H]5CCCN5C(=O)OCc5ccccc5)[nH]c34)c2)cn1 [Example 64, Benzyl (R)-2-(6-((3-fluoro-5-(1-methyl-1H-pyrazol-4-yl)benzyl)carbamoyl)-7H-purin-8-yl)pyrrolidine-1-carboxylate]
1000 to 10000 nM	Cn1cc(-c2cc(F)cc(CNC(=O)c3ncnc4nc([C@H]5CCCN5)[nH]c34)c2)cn1 [Example 65, (R)-N-(3-fluoro-5-(1-methyl-1H-pyrazol-4-yl)benzyl)-8-(pyrrolidin-2-yl)-7H-purine-6-carboxamide hydrochloride]
100 to 1000 nM	Cn1cc(-c2cc(F)cc(CNC(=O)c3ncnc4nc(C5CCN(C(=O)OCc6ccccc6)CC5)[nH]c34)c2)cn1 [Example 69, Benzyl 4-(6-((3-fluoro-5-(1-methyl-1H-pyrazol-4-yl)benzyl)carbamoyl)-7H-purin-8-yl)piperidine-1-carboxylate]
100 to 1000 nM	Cn1cc(-c2cc(F)cc(CNC(=O)c3ncnc4nc(C5CCNCC5)[nH]c34)c2)cn1 [Example 70, N-(3-fluoro-5-(1-methyl-1H-pyrazol-4-yl)benzyl)-8-(piperidin-4-yl)-7H-purine-6-carboxamide hydrochloride]
100 to 1000 nM	Cn1cc(-c2cc(F)cc(CNC(=O)c3ncnc4nc(C5CCN(C(=O)OCc6ccccc6)C5)[nH]c34)c2)cn1 (stereo not drawn) [Example 75, Benzyl 3-(6-((3-fluoro-5-(1-methyl-1H-pyrazol-4-yl)benzyl)carbamoyl)-7H-purin-8-yl)pyrrolidine-1-carboxylate]

Same assay, conditions: values marked * in the table, mixed hypoxic condition (1% oxygen + CoCl2) for 24 hours, concentration range at which HIF-1α expression is reduced by 50% vs untreated control, read-out: IC50 HIF-1α, Hypoxia(24h)

DC50	Structure (SMILES)
100 to 1000 nM	O=C(NCc1cc(F)cc(-c2cnn(-c3ccc(F)cc3)c2)c1)c1ncnc2nc(C3CCOC3)[nH]c12 (stereo not drawn) [Example 89, N-(3-fluoro-5-(1-(4-fluorophenyl)-1H-pyrazol-4-yl)benzyl)-8-(tetrahydrofuran-3-yl)-7H-purine-6-carboxamide]
100 to 1000 nM	C[C@@H](NC(=O)c1ncnc2nc(C3CCCC3)[nH]c12)c1cccc(-c2cnn(-c3ccc(F)cc3)c2)c1 [Example 90, (R)-8-cyclopentyl-N-(1-(3-(1-(4-fluorophenyl)-1H-pyrazol-4-yl)phenyl)ethyl)-7H-purine-6-carboxamide]
1000 to 10000 nM	C[C@H](NC(=O)c1ncnc2nc(C3CCCC3)[nH]c12)c1cccc(-c2cnn(-c3ccc(F)cc3)c2)c1 [Example 91, (S)-8-cyclopentyl-N-(1-(3-(1-(4-fluorophenyl)-1H-pyrazol-4-yl)phenyl)ethyl)-7H-purine-6-carboxamide]
100 to 1000 nM	O=C(NCCc1cccc(-c2cnn(-c3ccc(F)cc3)c2)c1)c1ncnc2nc(C3CCCC3)[nH]c12 [Example 94, 8-Cyclopentyl-N-(3-(1-(4-fluorophenyl)-1H-pyrazol-4-yl)phenethyl)-7H-purine-6-carboxamide]
100 to 1000 nM	O=C(NCc1ccc(F)c(-c2cnn(-c3ccc(F)cc3)c2)c1)c1ncnc2nc(C3CCCC3)[nH]c12 [Example 96, 8-Cyclopentyl-N-(4-fluoro-3-(1-(4-fluorophenyl)-1H-pyrazol-4-yl)benzyl)-7H-purine-6-carboxamide]
